Test results reported in PubChem BioAssay AID1259407 (Chemical Carcinogenesis Research Information System (CCRIS), 2018).
Activity calls are given as the source filed them. How the calls were made is not given here.

System: CCRIS mutagenicity, Ames/micronucleus/aberration tests
Experiment: CCRIS mutagenicity studies

Oc1cccc(O)c1
mutagenic call (End Point: In vitro chromosomal aberrations, Test System: Chinese hamster lung (CHL/IU) cells, Metabolic Activation: Rat, Liver, S9, Phenobarbital and 5,6-benzoflavone): active; positive (structural changes and ploidy). weak response.
mutagenic call (End Point: MORPHOLOGICAL TRANSFORMATION, Test System: SYRIAN HAMSTER EMBRYO CELLS (SHE)): inactive; negative
mutagenic call (End Point: MORPHOLOGICAL TRANSFORMATION, Test System: SYRIAN HAMSTER EMBRYO CELLS (SHE), Metabolic Activation: NONE): inactive; negative
mutagenic call (Test System: AMES SALMONELLA TYPHIMURIUM, Strain/Indicator: TA97, Metabolic Activation: NONE, Method: PREINCUBATION): inactive; negative
mutagenic call (Test System: AMES SALMONELLA TYPHIMURIUM, Strain/Indicator: TA97, Metabolic Activation: RAT, LIVER, S-9, PHENOBARBITAL, Method: PREINCUBATION): inactive; negative
mutagenic call (Test System: AMES SALMONELLA TYPHIMURIUM, Strain/Indicator: TA98, Metabolic Activation: HAMSTER, LIVER, S-9, AROCLOR 1254 (10%), Method: PREINCUBATION): inactive; negative
mutagenic call (Test System: AMES SALMONELLA TYPHIMURIUM, Strain/Indicator: TA98, Metabolic Activation: NONE): inactive; negative
mutagenic call (Test System: AMES SALMONELLA TYPHIMURIUM, Strain/Indicator: TA98, Metabolic Activation: NONE, Method: PREINCUBATION): inactive; negative
mutagenic call (Test System: AMES SALMONELLA TYPHIMURIUM, Strain/Indicator: TA98, Metabolic Activation: RAT, LIVER, S-9, AROCLOR 1254 (10%), Method: PREINCUBATION): inactive; negative
mutagenic call (Test System: AMES SALMONELLA TYPHIMURIUM, Strain/Indicator: TA98, Metabolic Activation: RAT, LIVER, S-9, PHENOBARBITAL, Method: PREINCUBATION): inactive; negative
mutagenic call (Test System: AMES SALMONELLA TYPHIMURIUM, Strain/Indicator: TA98, Metabolic Activation: RAT, LIVER, S-9, SODIUM PHENOBARBITAL AND 5,6-BENZOFLAVONE, Method: PREINCUBATION): inactive; negative
mutagenic call (Test System: AMES SALMONELLA TYPHIMURIUM, Strain/Indicator: TA98, Metabolic Activation: RAT, LIVER, S-9, Method: STANDARD PLATE): active; positive
mutagenic call (Test System: AMES SALMONELLA TYPHIMURIUM, Strain/Indicator: TA98, Metabolic Activation: S-9): inactive; negative
mutagenic call (Test System: AMES SALMONELLA TYPHIMURIUM, Strain/Indicator: TA100, Metabolic Activation: HAMSTER, LIVER, S-9, AROCLOR 1254 (10%), Method: PREINCUBATION): inactive; negative
mutagenic call (Test System: AMES SALMONELLA TYPHIMURIUM, Strain/Indicator: TA100, Metabolic Activation: NONE, Method: PREINCUBATION): inactive; negative
mutagenic call (Test System: AMES SALMONELLA TYPHIMURIUM, Strain/Indicator: TA100, Metabolic Activation: RAT, LIVER, S-9, AROCLOR 1254 (10%), Method: PREINCUBATION): inactive; negative
mutagenic call (Test System: AMES SALMONELLA TYPHIMURIUM, Strain/Indicator: TA100, Metabolic Activation: RAT, LIVER, S-9, SODIUM PHENOBARBITAL AND 5,6-BENZOFLAVONE, Method: PREINCUBATION): inactive; negative
mutagenic call (Test System: AMES SALMONELLA TYPHIMURIUM, Strain/Indicator: TA102, Metabolic Activation: NONE, Method: PREINCUBATION): inactive; negative
mutagenic call (Test System: AMES SALMONELLA TYPHIMURIUM, Strain/Indicator: TA102, Metabolic Activation: RAT, LIVER, S-9, SODIUM PHENOBARBITAL AND 5,6-BENZOFLAVONE, Method: PREINCUBATION): inactive; negative
mutagenic call (Test System: AMES SALMONELLA TYPHIMURIUM, Strain/Indicator: TA104, Metabolic Activation: NONE, Method: PREINCUBATION): inactive; negative
mutagenic call (Test System: AMES SALMONELLA TYPHIMURIUM, Strain/Indicator: TA104, Metabolic Activation: RAT, LIVER, S-9, SODIUM PHENOBARBITAL AND 5,6-BENZOFLAVONE, Method: PREINCUBATION): inactive; negative
mutagenic call (Test System: AMES SALMONELLA TYPHIMURIUM, Strain/Indicator: TA1535, Metabolic Activation: HAMSTER, LIVER, S-9, AROCLOR 1254 (10%), Method: PREINCUBATION): inactive; negative
mutagenic call (Test System: AMES SALMONELLA TYPHIMURIUM, Strain/Indicator: TA1535, Metabolic Activation: NONE, Method: PREINCUBATION): inactive; negative
mutagenic call (Test System: AMES SALMONELLA TYPHIMURIUM, Strain/Indicator: TA1535, Metabolic Activation: RAT, LIVER, S-9, AROCLOR 1254 (10%), Method: PREINCUBATION): inactive; negative
mutagenic call (Test System: AMES SALMONELLA TYPHIMURIUM, Strain/Indicator: TA1535, Metabolic Activation: RAT, LIVER, S-9, SODIUM PHENOBARBITAL AND 5,6-BENZOFLAVONE, Method: PREINCUBATION): inactive; negative
mutagenic call (Test System: AMES SALMONELLA TYPHIMURIUM, Strain/Indicator: TA1537, Metabolic Activation: HAMSTER, LIVER, S-9, AROCLOR 1254 (10%), Method: PREINCUBATION): inactive; negative
mutagenic call (Test System: AMES SALMONELLA TYPHIMURIUM, Strain/Indicator: TA1537, Metabolic Activation: NONE, Method: PREINCUBATION): inactive; negative
mutagenic call (Test System: AMES SALMONELLA TYPHIMURIUM, Strain/Indicator: TA1537, Metabolic Activation: RAT, LIVER, S-9, AROCLOR 1254 (10%), Method: PREINCUBATION): inactive; negative
mutagenic call (Test System: AMES SALMONELLA TYPHIMURIUM, Strain/Indicator: TA1537, Metabolic Activation: RAT, LIVER, S-9, SODIUM PHENOBARBITAL AND 5,6-BENZOFLAVONE, Method: PREINCUBATION): inactive; negative
mutagenic call (Test System: E. COLI, Strain/Indicator: B/R WP2 (TRP-HCR-), Metabolic Activation: RAT, LIVER, S-9, Method: STANDARD PLATE): active; positive
mutagenic call (Test System: E. COLI, Strain/Indicator: WP2UVRA/PKM101, Metabolic Activation: NONE, Method: PREINCUBATION): inactive; negative
mutagenic call (Test System: E. COLI, Strain/Indicator: WP2UVRA/PKM101, Metabolic Activation: RAT, LIVER, S-9, SODIUM PHENOBARBITAL AND 5,6-BENZOFLAVONE, Method: PREINCUBATION): inactive; negative
mutagenic call (Test System: E. COLI, Strain/Indicator: WP2UVRA, Metabolic Activation: NONE, Method: PREINCUBATION): inactive; negative
mutagenic call (Test System: E. COLI, Strain/Indicator: WP2UVRA, Metabolic Activation: RAT, LIVER, S-9, SODIUM PHENOBARBITAL AND 5,6-BENZOFLAVONE, Method: PREINCUBATION): inactive; negative
mutagenic call (Test System: MOUSE LYMPHOMA, Strain/Indicator: L5178Y (TK+/TK-), Metabolic Activation: NONE, Method: SUSPENSION/PLATE): active; positive

N[C@@H](CSC(F)(F)C(F)F)C(=O)O
mutagenic call (Test System: AMES SALMONELLA TYPHIMURIUM, Strain/Indicator: TA100, Metabolic Activation: RAT, KIDNEY, S-9, AROCLOR 1254, Method: STANDARD PLATE): inactive; negative
mutagenic call (Test System: AMES SALMONELLA TYPHIMURIUM, Strain/Indicator: TA2638, Metabolic Activation: NONE, Method: PREINCUBATION): inactive; negative

Cc1ccc2nsc(N)c2c1
mutagenic call (Test System: AMES SALMONELLA TYPHIMURIUM, Strain/Indicator: TA98, Metabolic Activation: NONE, Method: STANDARD PLATE): inactive; negative
mutagenic call (Test System: AMES SALMONELLA TYPHIMURIUM, Strain/Indicator: TA98, Metabolic Activation: S-9, Method: STANDARD PLATE): active; positive
mutagenic call (Test System: AMES SALMONELLA TYPHIMURIUM, Strain/Indicator: TA100, Metabolic Activation: NONE, Method: STANDARD PLATE): inactive; negative
mutagenic call (Test System: AMES SALMONELLA TYPHIMURIUM, Strain/Indicator: TA100, Metabolic Activation: S-9, Method: STANDARD PLATE): active; positive
mutagenic call (Test System: AMES SALMONELLA TYPHIMURIUM, Strain/Indicator: TA1535, Metabolic Activation: NONE, Method: STANDARD PLATE): inactive; negative
mutagenic call (Test System: AMES SALMONELLA TYPHIMURIUM, Strain/Indicator: TA1535, Metabolic Activation: S-9, Method: STANDARD PLATE): inactive; negative
mutagenic call (Test System: AMES SALMONELLA TYPHIMURIUM, Strain/Indicator: TA1537, Metabolic Activation: NONE, Method: STANDARD PLATE): inactive; negative
mutagenic call (Test System: AMES SALMONELLA TYPHIMURIUM, Strain/Indicator: TA1537, Metabolic Activation: S-9, Method: STANDARD PLATE): active; positive
